Consider 20 compounds from patent US9273057B2 (Bristol-Myers Squibb Company, priority 2012, dated 2016).

The target of the assay is CK2A1 (CK2α/β) (Homo sapiens, UniProt P68400). In words: CK2 kinase assay, CK2A1 (CK2α/β). Type of assay: biochemical. The settings on record: Table A; read-out: CK2A1 (CK2α/β) (IC50).
CK2A1 (CK2α/β), sequence (P68400 whole entry, species assumed): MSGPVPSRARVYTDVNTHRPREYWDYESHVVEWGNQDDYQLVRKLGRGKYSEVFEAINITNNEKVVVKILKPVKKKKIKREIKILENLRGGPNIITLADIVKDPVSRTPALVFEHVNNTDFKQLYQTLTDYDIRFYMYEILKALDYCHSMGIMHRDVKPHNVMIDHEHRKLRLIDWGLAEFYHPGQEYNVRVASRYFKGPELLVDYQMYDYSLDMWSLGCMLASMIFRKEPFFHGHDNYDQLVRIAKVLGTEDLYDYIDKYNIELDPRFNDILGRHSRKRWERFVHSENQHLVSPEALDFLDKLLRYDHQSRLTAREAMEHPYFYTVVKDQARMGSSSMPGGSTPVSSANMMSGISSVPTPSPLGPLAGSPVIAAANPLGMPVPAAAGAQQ
CK2A1 (CK2α/β), sequence (P67870 whole entry partner, species assumed): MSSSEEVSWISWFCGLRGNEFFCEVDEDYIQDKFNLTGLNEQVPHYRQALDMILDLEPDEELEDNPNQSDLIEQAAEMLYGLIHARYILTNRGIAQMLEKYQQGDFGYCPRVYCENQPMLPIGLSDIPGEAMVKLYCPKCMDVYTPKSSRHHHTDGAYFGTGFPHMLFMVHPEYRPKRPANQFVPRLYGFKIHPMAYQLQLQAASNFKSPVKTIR
On to `CC(=O)N1CC(N2CCC(c3cc(C#N)cc(Nc4nc(NC5CC5)c5ncc(C#N)n5n4)c3F)CC2)C1` [Example 637, 2-((3-(1-(1-acetylazetidin-3-yl)piperidin-4-yl)-2-fluoro-5-cyanophenyl)amino)-4-(cyclopropylamino)imidazo[2,1-f][1,2,4]triazine-7-carbonitrile], for which the IC50 stood at 4.79 nM.
Take `N#Cc1cc(Nc2nc(NC3CC3)c3ncc(C#N)n3n2)c(Cl)c(C2CCN(C3CN(C(=O)C(F)(F)F)C3)CC2)c1` [Example 638, 2-((2-chloro-5-cyano-3-(1-(1-(2,2,2-trifluoroacetyl)azetidin-3-yl)piperidin-4-yl)phenyl)amino)-4-(cyclopropylamino)imidazo[2,1-f][1,2,4]triazine-7-carbonitrile]: the IC50 was 0.8 nM.
The value for `CC(C)(C(N)=O)N1CCC(c2cc(C#N)cc(Nc3nc(NC4CC4)c4ncc(C#N)n4n3)c2Cl)CC1` [Example 641, 2-(4-(2-chloro-5-cyano-3-((7-cyano-4-(cyclopropylamino)imidazo[2,1-f][1,2,4]triazin-2-yl)amino)phenyl)piperidin-1-yl)-2-methylpropanamide] was 4.01 nM; that for `CNC(=O)CN1CCC(c2cc(C#N)cc(Nc3nc(NC4CC4)c4ncc(C#N)n4n3)c2Cl)CC1` [Example 642, 2-(4-(2-chloro-5-cyano-3-((7-cyano-4-(cyclopropylamino)imidazo[2,1-f][1,2,4]triazin-2-yl)amino)phenyl)piperidin-1-yl)-N-methylacetamide] was 0.76 nM.
Then `CC(C)(CO)N1CCC(c2cc(C#N)cc(Nc3nc(NC4CC4)c4ncc(C#N)n4n3)c2Cl)CC1` [Example 643, 2-((2-chloro-5-cyano-3-(1-(1-hydroxy-2-methylpropan-2-yl)piperidin-4-yl)phenyl)amino)-4-(cyclopropylamino)imidazo[2,1-f][1,2,4]triazine-7-carbonitrile], with 2.12 nM; and `N#Cc1cc(Nc2nc(NC3CC3)c3ncc(C#N)n3n2)c(Cl)c(C2CCN(C3CCC3=O)CC2)c1` (centres unmarked) [Example 644, 2-((2-chloro-5-cyano-3-(1-(2-oxocyclobutyl)piperidin-4-yl)phenyl)amino)-4-(cyclopropylamino)imidazo[2,1-f][1,2,4]triazine-7-carbonitrile], with 0.85 nM.
Regarding `CN1CCC(N2CC(O)(c3cc(C#N)cc(Nc4nc(NC5CC5)c5ncc(C#N)n5n4)c3Cl)C2)CC1` [Example 647, 2-((2-chloro-5-cyano-3-(3-hydroxy-1-(1-methylpiperidin-4-yl)azetidin-3-yl)phenyl)amino)-4-(cyclopropylamino)imidazo[2,1-f][1,2,4]triazine-7-carbonitrile], the IC50 worked out at 1.94 nM.
For the compound `N#Cc1cc(Nc2nc(NC3CC3)c3ncc(C#N)n3n2)c(Cl)c(C2(O)CCN(C3COC3)CC2)c1` [Example 648, 2-((2-chloro-5-cyano-3-(4-hydroxy-1-(oxetan-3-yl)piperidin-4-yl)phenyl)amino)-4-(cyclopropylamino)imidazo[2,1-f][1,2,4]triazine-7-carbonitrile], the IC50 turned out to be 0.85 nM.
For the compound `CN1CCC(O)(c2cc(C#N)cc(Nc3nc(NC4CC4)c4ncc(C#N)n4n3)c2Cl)CC1` [Example 649, 2-((2-chloro-5-cyano-3-(4-hydroxy-1-methylpiperidin-4-yl)phenyl)amino)-4-(cyclopropylamino)imidazo[2,1-f][1,2,4]triazine-7-carbonitrile], the IC50 turned out to be 1.01 nM.
The value for `CC(=O)N1CC(N2CCC(O)(c3cc(C#N)cc(Nc4nc(NC5CC5)c5ncc(C#N)n5n4)c3Cl)CC2)C1` [Example 650, 2-((3-(1-(1-acetylazetidin-3-yl)-4-hydroxypiperidin-4-yl)-2-chloro-5-cyanophenyl)amino)-4-(cyclopropylamino)imidazo[2,1-f][1,2,4]triazine-7-carbonitrile] was 1.09 nM; that for `N#Cc1cc(Nc2nc(NC3CC3)c3ncc(C#N)n3n2)c(Cl)c(C2(O)CCNC2)c1` (centres unmarked) [Example 651, 2-((2-chloro-5-cyano-3-(3-hydroxypyrrolidin-3-yl)phenyl)amino)-4-(cyclopropylamino)imidazo[2,1-f][1,2,4]triazine-7-carbonitrile] was 1.51 nM.
Then `N#Cc1cc(Nc2nc(NC3CC3)c3ncc(C#N)n3n2)c(Cl)c(C2(O)CCN(C3COC3)C2)c1` (centres unmarked) [Example 652, 2-((2-chloro-5-cyano-3-(3-hydroxy-1-(oxetan-3-yl)pyrrolidin-3-yl)phenyl)amino)-4-(cyclopropylamino)imidazo[2,1-f][1,2,4]triazine-7-carbonitrile], with 0.83 nM.
For `N#Cc1cc(Nc2nc(NC3CC3)c3ncc(C#N)n3n2)c(Cl)c(C2(O)COC2)c1` [Example 653, 2-((2-chloro-5-cyano-3-(3-hydroxyoxetan-3-yl)phenyl)amino)-4-(cyclopropylamino)imidazo[2,1-f][1,2,4]triazine-7-carbonitrile], the IC50 stood at 1.84 nM.
The value for `N#Cc1cc(Nc2nc(NC3CC3)c3ncc(C#N)n3n2)c(Cl)c(C(O)C2CCNCC2)c1` (centres unmarked) [Example 654, 2-((2-chloro-5-cyano-3-(hydroxy(piperidin-4-yl)methyl)phenyl)amino)-4-(cyclopropylamino)imidazo[2,1-f][1,2,4]triazine-7-carbonitrile] was 2.68 nM.
Turning to `N#Cc1cc(Nc2nc(NC3CC3)c3ncc(C#N)n3n2)c(Cl)c(C(O)C2CCN(C3COC3)CC2)c1` (centres unmarked) [Example 655, 2-((2-chloro-5-cyano-3-(hydroxy(1-(oxetan-3-yl)piperidin-4-yl)methyl)phenyl)amino)-4-(cyclopropylamino)imidazo[2,1-f][1,2,4]triazine-7-carbonitrile], the IC50 worked out at 2.82 nM.
Then `N#Cc1cc(Nc2nc(NC3CC3)c3ncc(C#N)n3n2)c(Cl)c(C(O)C2CN(C3COC3)C2)c1` (centres unmarked) [Example 656, 2-((2-chloro-5-cyano-3-(hydroxy(1-(oxetan-3-yl)azetidin-3-yl)methyl)phenyl)amino)-4-(cyclopropylamino)imidazo[2,1-f][1,2,4]triazine-7-carbonitrile], with 6.73 nM; and `CC1(C(O)c2cc(C#N)cc(Nc3nc(NC4CC4)c4ncc(C#N)n4n3)c2Cl)COC1` (centres unmarked) [Example 657, 2-((2-chloro-5-cyano-3-(hydroxy(3-methyloxetan-3-yl)methyl)phenyl)amino)-4-(cyclopropylamino)imidazo[2,1-f][1,2,4]triazine-7-carbonitrile], with 4.2 nM; and `CN1CCC(N2CC(F)(c3cc(C#N)cc(Nc4nc(NC5CC5)c5ncc(C#N)n5n4)c3Cl)C2)CC1` [Example 658, 2-((2-chloro-5-cyano-3-(3-fluoro-1-(1-methylpiperidin-4-yl)azetidin-3-yl)phenyl)amino)-4-(cyclopropylamino)imidazo[2,1-f][1,2,4]triazine-7-carbonitrile], with 2.27 nM.
The value for `N#Cc1cc(Nc2nc(NC3CC3)c3ncc(C#N)n3n2)c(Cl)c(C2(F)CNC2)c1` [Example 659, 2-((2-chloro-5-cyano-3-(3-fluoroazetidin-3-yl)phenyl)amino)-4-(cyclopropylamino)imidazo[2,1-f][1,2,4]triazine-7-carbonitrile] was 0.4 nM; that for `N#Cc1cc(Nc2nc(NC3CC3)c3ncc(C#N)n3n2)c(Cl)c(C2(F)COC2)c1` [Example 660, 2-((2-chloro-5-cyano-3-(3-fluorooxetan-3-yl)phenyl)amino)-4-(cyclopropylamino)imidazo[2,1-f][1,2,4]triazine-7-carbonitrile] was 0.35 nM.
